Laboratory results taken from patent US11382956B2, “Amylin analogues” (Zealand Pharma A/S, priority 2016, dated 2022).
Numbered stars: 1 amine (or outer) side, 2 acyl side, 3 side chain; on linkers, the order of the positions; unused ones are H or OH. Bridge positions count the residues as written; N and C are the ends. Square brackets hold non-standard residues; d marks the D form. Peptide text beside a SMILES is read from it. * marks the point of attachment. C20 diacid = O=C(O)CCCCCCCCCCCCCCCCCCC(=O)*; γGlu = O=C(O)[C@H](CCC(=O)[*:2])N[*:1]; Hyp = O=C(O)[C@@H]1C[C@@H](O)CN1; NMeI = CC[C@H](C)[C@H](NC)C(=O)O; Aad = N[C@@H](CCCC(=O)O)C(=O)O; Sar = CNCC(=O)O

Columns and labels:
[1] = target: T1, recombinant human calcitonin receptor (hCT-R) (Homo sapiens, UniProt P30988); assay: hCT-R cAMP assay (AlphaScreen) in 1321N1 cells; format: cell-based; settings: cAMP formation, 45 min stimulation
T1 construct: host or cells: human astrocytoma cell line 1321N1
T1 sequence (P30988 25-474): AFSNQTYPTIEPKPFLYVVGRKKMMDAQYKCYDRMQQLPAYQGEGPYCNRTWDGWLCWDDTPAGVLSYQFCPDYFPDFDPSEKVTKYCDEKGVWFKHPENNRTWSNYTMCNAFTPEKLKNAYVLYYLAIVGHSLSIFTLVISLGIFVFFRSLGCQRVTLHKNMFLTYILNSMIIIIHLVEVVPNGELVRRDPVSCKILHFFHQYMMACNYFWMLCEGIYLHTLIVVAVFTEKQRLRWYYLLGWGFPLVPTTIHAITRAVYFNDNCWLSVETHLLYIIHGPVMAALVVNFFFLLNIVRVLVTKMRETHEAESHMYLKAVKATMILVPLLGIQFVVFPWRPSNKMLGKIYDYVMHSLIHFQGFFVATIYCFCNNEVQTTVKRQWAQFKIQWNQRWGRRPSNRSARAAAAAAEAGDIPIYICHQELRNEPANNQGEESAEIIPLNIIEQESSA
How it was run: (§1)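 1321N1 astrocytoma cells expressing recombinant human calcitonin receptor alone or with RAMP3 (AMY3) stimulated 45 min at room temperature with peptide in IBMX-containing buffer. cAMP quantified by AlphaScreen after 1 h bead incubation; EC50 fitted from at least 7 concentrations.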

[2] = target: T2, recombinant human amylin 3 receptor (hAMYR3) (Homo sapiens, UniProt O60896+P30988); assay: hAMYR3 cAMP assay (AlphaScreen) in 1321N1 cells; format: cell-based; settings: cAMP formation, 45 min stimulation
T2 construct: host or cells: human astrocytoma cell line 1321N1
T2 sequence (P30988 25-474): T1 sequence (P30988 25-474)
T2 sequence (O60896 24-148 partner): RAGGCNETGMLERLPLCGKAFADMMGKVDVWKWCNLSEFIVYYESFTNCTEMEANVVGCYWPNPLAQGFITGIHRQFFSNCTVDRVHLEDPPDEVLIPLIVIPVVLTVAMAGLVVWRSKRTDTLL
How it was run: as §1

[3] = Assessment of chemical stability in 40 mM buffers at 40° C. (RP-HPLC); format: physicochemical; settings: 1 mg/mL
How it was run: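 Peptides at 1 mg/mL in 40 mM acetate pH 4 or phosphate pH 6 and 7 were held at 40° C for 3 and 14 days. Main-peak area-% by C8 RP-HPLC, UV 220 nm; % degradation = change in main-peak area-% versus t=0.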

[4] = Assessment of physical stability: fibril formation by Thioflavin T fluorescence; format: physicochemical; parameters: key: FND = fibrillation not detected; FD = fibrillation detected; settings: 1 mg/mL peptide; for Fibrillation (in buffer) pH4 acetate: 50 mM acetate buffer pH 4.0, 96 hours at 40° C.; for Fibrillation (in buffer) pH7 histidine: 50 mM histidine buffer pH 7.0, 96 hours at 40° C.; for Fibrillation (in buffer) pH7 phosphate: 50 mM phosphate buffer pH 7.0, 96 hours at 40° C.
How it was run: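 Test peptide at 1 mg/mL with 40 μM ThT in 50 mM phosphate pH 7.0, 50 mM histidine pH 7.0, or 50 mM acetate pH 4.0, in triplicate. Fluorescence read every 10 min after 300 s agitation for 96 hours at 40° C; significant intensity rise scored as fibrillation detected (FD).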

CC[C@H](C)[C@@H](C(=O)N1CCC[C@H]1C(=O)N[C@@H](CO)C(=O)N[C@@H](CO)C(=O)N[C@H](C(=O)N[C@@H](CCC(=O)O)C(=O)N[C@H](C(=O)NCC(=O)N[C@@H](CO)C(=O)N[C@@H](CC(N)=O)C(=O)N[C@H](C(=O)N1C[C@H](O)C[C@H]1C(N)=O)[C@@H](C)O)C(C)C)[C@@H](C)O)N(C)C(=O)[C@H](C)NC(=O)CN(C)C(=O)[C@H](Cc1ccccc1)NC(=O)[C@H](CO)NC(=O)[C@H](CO)NC(=O)[C@H](CCCNC(=N)N)NC(=O)[C@H](CCC(N)=O)NC(=O)[C@H](CC(C)C)NC(=O)[C@H](Cc1ccccc1)NC(=O)[C@H](CCCC(=O)O)NC(=O)[C@H](C)NC(=O)[C@H](CC(C)C)NC(=O)[C@H](CCCNC(=N)N)NC(=O)[C@H](CCC(=O)O)NC(=O)[C@@H](NC(=O)[C@H](C)NC(=O)[C@@H]1CCCCNC(=O)C[C@H](NC(=O)[C@H](CCCNC(=N)N)NC(=O)CC[C@H](NC(=O)CCCCCCCCCCCCCCCCCCC(=O)O)C(=O)O)C(=O)NCC(=O)N[C@@H]([C@@H](C)O)C(=O)N[C@@H](C)C(=O)N[C@@H]([C@@H](C)O)C(=O)N1)[C@@H](C)O [Compound 34, [19CD]-isoGlu-RD()GTATK()ATERLA-Aad-FLQRSSF-Gly(Me)-A-Ile(Me)-PSSTEVGSNT-Hyp-NH2] ({C20 diacid-γGlu}-RDGTATKATERLA[Aad]FLQRSSF[Sar]A[NMeI]PSSTEVGSNT[Hyp]-NH2; lactam 2-7)
EC50 [1]: 0.206 nM | EC50 [2]: 0.063 nM | % degradation after 72 h at 40° C. pH4 acetate ([3]; acetate buffer pH 4, 72 h): <1% | % degradation after 72 h at 40° C. pH6 phosphate ([3]; phosphate buffer pH 6, 72 h): <1% | % degradation after 72 h at 40° C. pH7 phosphate ([3]; phosphate buffer pH 7, 72 h): 2.8% | Fibrillation (in buffer) pH4 acetate [4]: FND | Fibrillation (in buffer) pH7 histidine [4]: FND | Fibrillation (in buffer) pH7 phosphate [4]: FND

CC[C@H](C)[C@@H](C(=O)N[C@@H](CC(C)C)C(=O)N[C@@H](CO)C(=O)N[C@@H](CO)C(=O)N[C@H](C(=O)N[C@@H](CCC(=O)O)C(=O)N[C@H](C(=O)NCC(=O)N[C@@H](CO)C(=O)N[C@@H](CC(N)=O)C(=O)N[C@H](C(=O)N1C[C@H](O)C[C@H]1C(N)=O)[C@@H](C)O)C(C)C)[C@@H](C)O)N(C)C(=O)[C@H](C)NC(=O)CN(C)C(=O)[C@H](Cc1ccccc1)NC(=O)[C@H](CO)NC(=O)[C@H](CO)NC(=O)[C@H](CCCNC(=N)N)NC(=O)[C@H](CCC(N)=O)NC(=O)[C@H](CC(C)C)NC(=O)[C@H](Cc1ccccc1)NC(=O)[C@H](CCCC(=O)O)NC(=O)[C@H](C)NC(=O)[C@H](CC(C)C)NC(=O)[C@H](CCCNC(=N)N)NC(=O)[C@H](CCC(=O)O)NC(=O)[C@@H](NC(=O)[C@H](C)NC(=O)[C@@H]1CSSC[C@H](NC(=O)[C@H](CCCNC(=N)N)NC(=O)CC[C@H](NC(=O)CCCCCCCCCCCCCCCCCCC(=O)O)C(=O)O)C(=O)NCC(=O)N[C@@H]([C@@H](C)O)C(=O)N[C@@H](C)C(=O)N[C@@H]([C@@H](C)O)C(=O)N1)[C@@H](C)O [Ref. 4, [19CD]-isoGlu-RC()GTATC()ATERLA-Aad-FLQRSSF-Sar-A-Ile(Me)-LSSTEVGSNT-Hyp-NH2, reference compound] ({C20 diacid-γGlu}-RCGTATCATERLA[Aad]FLQRSSF[Sar]A[NMeI]LSSTEVGSNT[Hyp]-NH2; disulfide 2-7)
EC50 [1]: 0.075 nM | EC50 [2]: 0.031 nM | % degradation after 14 days at 40° C. pH4 acetate ([3]; acetate buffer pH 4, 14 days): 3.2% | % degradation after 14 days at 40° C. pH6 phosphate ([3]; phosphate buffer pH 6, 14 days): 12.6% | % degradation after 14 days at 40° C. pH7 phosphate ([3]; phosphate buffer pH 7, 14 days): 20.3% | Fibrillation (in buffer) pH4 acetate [4]: FND | Fibrillation (in buffer) pH7 histidine [4]: FND | Fibrillation (in buffer) pH7 phosphate [4]: FND
